In patent publication EP0007319A1, “Indan-1-carboxylic acid derivatives,process for their preparation and pharmaceutical preparations containing these compounds” (priority 1978, dated 1980):

Tests used:
[1] = tested on: Adjuvans-Arthritis; assay: Adjuvant arthritis test (antiphlogistic activity); assay type: in vivo, Ratten des Stammes Lewis (LEW); settings: Rattus norvegicus; dose giving 40 % healing of right hind paw; M. butyricum adjuvant; oral, daily over 4 days from day 11; Lewis rats; read-out: Adjuvans-Arthritis Test in mg/kg Tier (ED40)
Text: Die antiphlogistische Wirksamkeit der eriindungsgemäßen Substanzen kann mit Hilfe des bekannten Adjuvans-Arthritis-Testes ermittelt werden, der wie folgt durchgeführt wird:
Es werden weibliche und männliche Ratten des Stammes Lewis (LEW) in der Gewichtsspanne zwischen 110 - 190 g verwendet. Die Tiere erhalten Trinkwasser und Altromin-Preßfutter ad libitum.
Für jede Dosisgruppe werden 10 Ratten eingesetzt .
Mycobacterium butyricum der Firma Difko, Detroit, wird als Reizmittel verwandt. Eine Suspension von 0,5 mg M. butyricum in 0,1 ml dünnflüssigem Paraffin. (DAB 7) wird in die rechte Hinterpfote subplantar injiziert.
Die Testsubstanzen werden vom 11. Versuchstag an täglich über 4 Tage oral gegeben. Die Substanzen werden als klare wässrige Lösung oder als Kristallsuspension unter Zusatz von Myrj 53 (85 mg.%) in isotonischer Natriumchlorid-Lösung verabreicht.
Die Ratten werden in bezug auf ihr Köpergewicht möglichst gleichmäßig in verschiedene Gruppen eingeteilt. Nach plethysmographischej Volumenmessung der rechten Hinterpfote wird in diese subplantar 0,1 ml Adjuvans injiziert. Die rechten Hinterpfoten werden vom 14. Versuchstag bis zum Versuchsende gemessen. Die Versuchsdauer beträgt 3 Wochen.
Bestimmt wird die Dosis an Testsubstanz, bei der eine 40 %ige Abheilung beobachtet wird (=ED40).

[2] = tested on: Magen; assay: Ulcer test (gastric ulceration); assay type: in vivo, Wistar-Eatten (SPF)
Text: Eine häufige Komplikation bei der Therapie mit nichtsteroidalen Entzündungshemmern stellt das Auftreten von Magenulcerationen dar. Diese Nebenwirkung kann im Tierversuch nachgewiesen werden, wobei als Dosis die Menge Testsubstanz verwendet wird, bei der im Adjuvans-Arthritis Test eine 40 %ige Abheilung beobachtet wird. Der Ulkus-Test wird wie folgt durchgeführt.
Es werden männliche Wistar-Eatten (SPF) verwandt. Die Tiere liege in einer Gewichtsspanne von 130 + 10 g. 16 Stunden vor Versuchsbeginn werden die Tiere vom Futter abgesetzt; sie erhalten Wasser ad libitum.
Pro Dosis werden 5 Tiere eingesetzt. Die Substanzen werden einmal oral, in Natriumelorid gelöst' oder als Kristallsuspension unter Zusatz von 85 mg% Myrj 53_appliziert.
3 Stunden nach Substanzapplikation injiziert man 1 ml einer 3 %igen Lösung des Farbstoffs Diphenylreinblau intravenös und tötet das Tier. Der Magen wird reseziert und mikroskopisch auf Anzahl von Epithclläsionen und Ulcera, die durch Farbstoffanreichcrunsen hervortreten, untersucht.

[3] = single oral dose equal to the ED40 of the adjuvant arthritis test, male Wistar rats, fasted 16 h, stomach examined 3 h after application

Compound	ED40 [1] [mg/kg]	Anzahl der Magenulzera bei gleicher Dosis ([2]; rat, in vivo, po)	Anzahl der Magenulzera bei gleicher Dosis [2, 3]
O=C(O)C1CCc2cc(C3CCCCC3)c(Cl)cc21 (stereo not drawn) [Verbindung 4, 6-Chlor-5-cyclohexyl-indan-1-carbonsäure]	4	7,8	–
CC(C(=O)O)c1ccc(CC2CCCC2)c(Cl)c1 (stereo not drawn) [Verbindung 7, 2-(3-Chlor-4-cyclopentyl-methyl-phenyl)-propionsäure]	3	–	0,6
CC(C)Cc1ccc(C(C)C(=O)O)cc1 (stereo not drawn) [Verbindung 1]	100	6,8	–
CC(C(=O)O)c1ccc(CC2CC2)cc1 (stereo not drawn) [Verbindung 5, 2-(4-Cyclopropylmethyl-phenyl)-propionsäure]	90	–	5,4
O=C(O)C1CCc2cc(CC3CCCC3)c(Cl)cc21 (stereo not drawn) [Verbindung 8, 6-Chlor-5-cyclopentyl-methyl-indan-1-carbonsäure]	30	–	2,2
CC(C(=O)O)c1ccc(C2CCCCC2)cc1 (stereo not drawn) [Verbindung 2, 2-(4-Cyclohexyl-phenyl)-propionsäure]	40	7,6	–
O=C(O)C1CCc2cc(C3CCCCC3)ccc21 (stereo not drawn) [Verbindung 3, 5-Cyclohexyl-indan-1-carbonsäure]	50	8,3	–
CC(C(=O)O)c1ccc(CC2CCCC2)cc1 (stereo not drawn) [Verbindung 6, 2-(4-Cyclopentylmethyl-phenyl)-propionsäure]	10	–	0,6
O=C(O)C1CCc2cc(C=C3CCCC3)c(Cl)cc21 (stereo not drawn) [Verbindung 9, 6-Chlor-5-cyclopentyliden-methyl-indan-1-carbon-säure]	40	–	0,7
